In article PMC10977726 (PLOS ONE, 2024):

What was measured:
[1] = target: T1, human IgG Fc (Homo sapiens, UniProt P01857); experiment: Phage competition ELISA for epitope mapping (various synthetic DCPs vs phage displaying one DCP); type: binding
T1 construct: Biotin-SP-ChromPure Human IgG, Fc fragment; purchased Jackson Immunoresearch Labs Inc. 009060008

[2] = 100% human serum, 0.2 mM DCP, 37°C, LC-MS, UV 220 nm peak area normalized to 0 h, three independent experiments

## CC[C@H](C)[C@@H]1NC(=O)[C@H](CO)NC(=O)[C@H]([C@@H](C)CC)NC(=O)[C@H](CO)NC(=O)[C@H](CO)NC(=O)[C@@H]2CSSC[C@@H]3NC(=O)[C@H](CO)NC(=O)CNC(=O)[C@H]([C@@H](C)O)NC(=O)[C@H](CSSC[C@H](NC(=O)[C@@H](N)CCC(=O)O)C(=O)N[C@@H](CCCCN)C(=O)NCC(=O)N[C@@H](CCCCN)C(=O)NCC(=O)N[C@@H](C)C(=O)N[C@@H](CCCCN)C(=O)N2)NC(=O)[C@H](CSSC[C@@H](C(=O)O)NC(=O)[C@H](CCCCN)NC(=O)CNC(=O)[C@H](CO)NC(=O)[C@H](CCCNC(=N)N)NC3=O)NC(=O)[C@H](Cc2c[nH]cn2)NC(=O)[C@H](C)NC(=O)[C@H](CC(=O)O)NC(=O)[C@H](Cc2c[nH]cn2)NC1=O [Ig-CON-5]
[1]; Fig 4D
  inhibition of interaction between biotinylated hIgG Fc and phage displaying Ig-AMP-1: potently inhibited
[1]; Fig S15
  inhibition of interaction between human IgG Fc and phage displaying Ig-CON-5: potently inhibited
[2]
  loss of peptides after 24 h: 40–50%
